What was measured:
[1] = target: Lysine-specific demethylase 5A (Homo sapiens, UniProt P29375); test: Inhibition of KDM5A (1 to 1090 residues)(unknown origin) by Alphalisa assay
[2] = target: Lysine-specific demethylase 5C (Homo sapiens, UniProt P41229); test: Inhibition of KDM5C (2 to 1560 residues)(unknown origin) by Alphalisa assay
[3] = target: T1, Lysine-specific demethylase 2B (Homo sapiens, UniProt Q8NHM5); test: Inhibition of KDM2B (1 to 650 residues)(unknown origin) by Alphalisa assay
T1 sequence (Q8NHM5 whole entry): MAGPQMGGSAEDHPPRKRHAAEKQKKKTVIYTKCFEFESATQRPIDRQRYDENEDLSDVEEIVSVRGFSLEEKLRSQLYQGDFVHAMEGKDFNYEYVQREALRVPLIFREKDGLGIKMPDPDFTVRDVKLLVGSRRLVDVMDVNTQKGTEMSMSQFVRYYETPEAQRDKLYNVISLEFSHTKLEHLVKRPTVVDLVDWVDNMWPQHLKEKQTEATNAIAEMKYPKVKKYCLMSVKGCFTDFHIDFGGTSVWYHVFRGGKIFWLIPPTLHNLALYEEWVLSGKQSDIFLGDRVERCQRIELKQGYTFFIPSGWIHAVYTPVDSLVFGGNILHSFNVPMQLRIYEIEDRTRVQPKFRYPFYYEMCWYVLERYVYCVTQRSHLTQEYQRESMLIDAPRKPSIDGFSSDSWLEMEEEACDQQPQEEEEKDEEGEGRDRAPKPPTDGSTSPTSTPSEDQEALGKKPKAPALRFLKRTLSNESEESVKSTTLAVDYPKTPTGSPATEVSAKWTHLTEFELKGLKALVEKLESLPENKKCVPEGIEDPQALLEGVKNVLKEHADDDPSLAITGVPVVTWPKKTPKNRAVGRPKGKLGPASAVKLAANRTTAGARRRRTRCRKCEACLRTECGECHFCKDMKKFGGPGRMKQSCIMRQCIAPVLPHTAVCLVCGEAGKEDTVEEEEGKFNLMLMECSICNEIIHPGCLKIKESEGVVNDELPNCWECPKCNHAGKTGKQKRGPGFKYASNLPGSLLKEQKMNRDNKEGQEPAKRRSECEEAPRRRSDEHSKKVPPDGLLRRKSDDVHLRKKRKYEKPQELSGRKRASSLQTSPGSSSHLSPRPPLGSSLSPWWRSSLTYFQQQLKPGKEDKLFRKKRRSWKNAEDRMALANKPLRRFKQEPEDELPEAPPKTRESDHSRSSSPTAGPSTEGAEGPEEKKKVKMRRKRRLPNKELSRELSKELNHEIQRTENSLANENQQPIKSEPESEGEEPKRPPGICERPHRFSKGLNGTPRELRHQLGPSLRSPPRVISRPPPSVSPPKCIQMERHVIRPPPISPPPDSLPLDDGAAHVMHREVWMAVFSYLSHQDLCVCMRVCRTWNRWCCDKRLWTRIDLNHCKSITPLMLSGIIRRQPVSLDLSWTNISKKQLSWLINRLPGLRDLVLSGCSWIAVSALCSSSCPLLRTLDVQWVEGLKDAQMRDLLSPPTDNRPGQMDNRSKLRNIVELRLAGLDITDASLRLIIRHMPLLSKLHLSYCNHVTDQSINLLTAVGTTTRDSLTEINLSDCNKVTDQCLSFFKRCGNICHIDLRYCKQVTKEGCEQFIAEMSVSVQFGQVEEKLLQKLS

[4] = target: Lysine-specific demethylase 5B (Homo sapiens, UniProt Q9UGL1); test: Inhibition of KDM5B (1 to 809 residues)(unknown origin) by Alphalisa assay
Chain of Lysine-specific demethylase 5B (Q9UGL1 whole entry, the tested form may be a part): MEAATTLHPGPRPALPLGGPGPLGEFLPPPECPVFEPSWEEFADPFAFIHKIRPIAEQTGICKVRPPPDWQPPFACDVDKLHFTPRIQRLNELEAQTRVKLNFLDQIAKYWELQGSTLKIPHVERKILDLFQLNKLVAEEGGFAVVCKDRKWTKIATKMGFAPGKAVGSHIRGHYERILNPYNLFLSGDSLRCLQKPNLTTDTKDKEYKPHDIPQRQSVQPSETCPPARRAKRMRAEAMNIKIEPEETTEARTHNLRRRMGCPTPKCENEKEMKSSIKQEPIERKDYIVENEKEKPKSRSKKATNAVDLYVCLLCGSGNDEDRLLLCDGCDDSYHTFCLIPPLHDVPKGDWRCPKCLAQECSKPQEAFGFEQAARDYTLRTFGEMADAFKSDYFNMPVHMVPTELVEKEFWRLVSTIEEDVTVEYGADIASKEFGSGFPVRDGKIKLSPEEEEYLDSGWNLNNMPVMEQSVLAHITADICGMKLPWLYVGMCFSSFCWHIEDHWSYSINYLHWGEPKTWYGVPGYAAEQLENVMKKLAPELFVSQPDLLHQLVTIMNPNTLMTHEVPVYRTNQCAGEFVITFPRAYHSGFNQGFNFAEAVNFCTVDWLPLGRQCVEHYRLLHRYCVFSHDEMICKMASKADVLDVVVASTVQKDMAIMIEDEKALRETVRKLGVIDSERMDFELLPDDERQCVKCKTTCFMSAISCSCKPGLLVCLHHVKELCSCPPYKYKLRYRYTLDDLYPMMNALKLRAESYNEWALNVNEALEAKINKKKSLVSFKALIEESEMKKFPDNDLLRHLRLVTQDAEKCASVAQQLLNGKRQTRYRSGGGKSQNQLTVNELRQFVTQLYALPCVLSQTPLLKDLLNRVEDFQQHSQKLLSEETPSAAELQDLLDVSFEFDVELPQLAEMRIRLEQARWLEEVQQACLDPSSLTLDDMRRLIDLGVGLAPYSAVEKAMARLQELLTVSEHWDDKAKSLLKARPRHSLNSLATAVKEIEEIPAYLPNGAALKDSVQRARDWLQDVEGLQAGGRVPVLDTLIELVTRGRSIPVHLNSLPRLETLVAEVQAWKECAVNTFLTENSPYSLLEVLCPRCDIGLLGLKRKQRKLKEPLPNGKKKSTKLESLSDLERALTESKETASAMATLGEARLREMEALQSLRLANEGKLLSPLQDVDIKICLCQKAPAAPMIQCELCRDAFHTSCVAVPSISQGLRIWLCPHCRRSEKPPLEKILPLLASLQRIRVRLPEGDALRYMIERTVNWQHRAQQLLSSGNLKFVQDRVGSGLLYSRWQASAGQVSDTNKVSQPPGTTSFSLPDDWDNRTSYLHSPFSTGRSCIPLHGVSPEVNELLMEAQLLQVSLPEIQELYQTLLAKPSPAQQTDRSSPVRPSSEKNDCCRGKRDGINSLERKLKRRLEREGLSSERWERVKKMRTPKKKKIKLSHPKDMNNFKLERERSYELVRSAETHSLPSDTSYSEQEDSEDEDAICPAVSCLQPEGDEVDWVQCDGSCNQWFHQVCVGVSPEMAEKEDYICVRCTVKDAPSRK

[5] = target: Histone lysine demethylase PHF8 (Homo sapiens, UniProt Q9UPP1); test: Inhibition of PHF8 (1 to 1024 residues)(unknown origin) by Alphalisa assay
Chain of Histone lysine demethylase PHF8 (Q9UPP1 whole entry, the tested form may be a part): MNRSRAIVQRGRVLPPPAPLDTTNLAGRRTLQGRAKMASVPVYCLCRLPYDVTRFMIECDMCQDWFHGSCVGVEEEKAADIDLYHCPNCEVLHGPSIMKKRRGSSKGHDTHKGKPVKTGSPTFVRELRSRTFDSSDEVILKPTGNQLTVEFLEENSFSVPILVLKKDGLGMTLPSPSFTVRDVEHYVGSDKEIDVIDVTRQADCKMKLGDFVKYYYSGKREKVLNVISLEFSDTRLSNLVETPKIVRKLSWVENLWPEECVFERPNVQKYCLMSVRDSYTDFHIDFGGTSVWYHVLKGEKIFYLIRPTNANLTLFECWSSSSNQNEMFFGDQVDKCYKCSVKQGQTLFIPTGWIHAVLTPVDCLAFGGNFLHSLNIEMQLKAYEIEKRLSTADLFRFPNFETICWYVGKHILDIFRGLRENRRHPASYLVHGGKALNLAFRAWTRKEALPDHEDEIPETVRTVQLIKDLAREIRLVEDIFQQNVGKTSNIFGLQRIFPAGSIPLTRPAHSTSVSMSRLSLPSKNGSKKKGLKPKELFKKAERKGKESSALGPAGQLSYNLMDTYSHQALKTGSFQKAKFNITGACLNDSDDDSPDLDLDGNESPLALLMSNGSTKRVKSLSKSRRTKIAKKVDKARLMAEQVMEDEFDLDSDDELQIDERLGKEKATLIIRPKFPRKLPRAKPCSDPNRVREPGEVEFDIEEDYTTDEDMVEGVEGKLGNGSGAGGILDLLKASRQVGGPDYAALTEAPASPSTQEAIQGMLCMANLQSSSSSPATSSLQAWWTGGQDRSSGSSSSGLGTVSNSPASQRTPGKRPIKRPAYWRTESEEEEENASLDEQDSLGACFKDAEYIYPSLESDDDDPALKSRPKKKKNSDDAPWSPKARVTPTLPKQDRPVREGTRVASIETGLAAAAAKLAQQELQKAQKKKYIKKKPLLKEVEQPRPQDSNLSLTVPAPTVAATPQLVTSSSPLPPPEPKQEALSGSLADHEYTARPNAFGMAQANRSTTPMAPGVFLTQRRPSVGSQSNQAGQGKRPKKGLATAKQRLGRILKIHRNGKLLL

Chain of Lysine-specific demethylase 5A (P29375 whole entry, the tested form may be a part): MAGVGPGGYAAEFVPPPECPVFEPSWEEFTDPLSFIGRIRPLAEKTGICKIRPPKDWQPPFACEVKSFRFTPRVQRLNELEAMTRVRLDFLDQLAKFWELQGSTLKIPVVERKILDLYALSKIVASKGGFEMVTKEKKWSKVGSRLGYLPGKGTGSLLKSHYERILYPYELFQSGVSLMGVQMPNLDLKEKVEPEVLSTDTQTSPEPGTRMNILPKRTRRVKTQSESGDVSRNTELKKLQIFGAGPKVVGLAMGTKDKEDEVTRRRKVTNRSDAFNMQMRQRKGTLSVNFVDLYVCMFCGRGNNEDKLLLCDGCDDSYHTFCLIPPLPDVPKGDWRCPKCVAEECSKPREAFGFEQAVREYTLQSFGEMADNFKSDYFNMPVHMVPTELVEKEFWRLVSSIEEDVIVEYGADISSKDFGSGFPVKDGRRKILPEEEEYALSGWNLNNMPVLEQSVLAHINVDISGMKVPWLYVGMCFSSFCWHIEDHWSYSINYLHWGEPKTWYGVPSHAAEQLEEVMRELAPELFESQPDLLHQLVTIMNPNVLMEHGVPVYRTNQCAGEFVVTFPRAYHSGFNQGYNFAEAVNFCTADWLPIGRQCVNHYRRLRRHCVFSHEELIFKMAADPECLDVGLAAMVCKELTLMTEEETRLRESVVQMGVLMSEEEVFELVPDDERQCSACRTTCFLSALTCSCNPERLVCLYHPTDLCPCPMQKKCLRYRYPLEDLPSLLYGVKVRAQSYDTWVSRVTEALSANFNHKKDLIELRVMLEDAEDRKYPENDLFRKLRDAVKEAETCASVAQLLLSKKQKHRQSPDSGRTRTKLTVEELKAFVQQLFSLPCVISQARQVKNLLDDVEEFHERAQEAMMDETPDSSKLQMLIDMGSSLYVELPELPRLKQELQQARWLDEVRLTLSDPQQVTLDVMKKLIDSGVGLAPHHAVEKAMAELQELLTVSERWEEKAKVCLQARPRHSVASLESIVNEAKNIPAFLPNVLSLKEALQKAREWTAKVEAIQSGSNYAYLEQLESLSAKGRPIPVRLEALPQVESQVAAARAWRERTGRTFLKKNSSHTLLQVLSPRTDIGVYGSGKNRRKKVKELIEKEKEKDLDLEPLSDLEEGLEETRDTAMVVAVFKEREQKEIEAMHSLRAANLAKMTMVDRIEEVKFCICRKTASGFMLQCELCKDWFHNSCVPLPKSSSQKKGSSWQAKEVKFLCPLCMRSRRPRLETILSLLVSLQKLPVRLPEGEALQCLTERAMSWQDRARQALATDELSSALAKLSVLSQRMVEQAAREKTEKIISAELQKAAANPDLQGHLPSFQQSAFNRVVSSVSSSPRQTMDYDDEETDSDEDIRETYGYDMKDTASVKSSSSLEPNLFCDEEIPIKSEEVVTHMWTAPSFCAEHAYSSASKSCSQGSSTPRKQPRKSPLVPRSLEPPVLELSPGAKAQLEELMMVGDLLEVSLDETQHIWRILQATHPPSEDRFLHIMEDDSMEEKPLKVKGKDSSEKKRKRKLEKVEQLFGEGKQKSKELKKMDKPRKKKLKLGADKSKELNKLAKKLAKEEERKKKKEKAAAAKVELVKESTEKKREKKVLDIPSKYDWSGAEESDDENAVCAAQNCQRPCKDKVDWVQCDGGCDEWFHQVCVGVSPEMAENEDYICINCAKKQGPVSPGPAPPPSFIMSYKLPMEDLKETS

| Compound | IC50 [1] [µM] | IC50 [2] [µM] | IC50 [3] [µM] | IC50 [4] [µM] | IC50 [5] [µM] |
| --- | --- | --- | --- | --- | --- |
| O=C(O)CCNc1cc(N2CCc3ccccc3CC2)nc(-c2cccnc2)n1 | > 20 | > 75 | 8.3 | 33 | 17 |
| CCOC(=O)CCNc1cc(N2CCc3ccccc3CC2)nc(-c2cccnc2)n1 | > 50 | – | 24 | > 25 | > 25 |
